The nature of series [1]: Whole body activity by handheld monitor at 1 m from the dog. The class given is in vivo, dogs. From the text:
All dogs were held overnight in a protected area with institutionally approved radiation safety protocols. Dogs were released from the facility after whole body radiation levels were less than 0.5 mR/hr at the skin surface and less than 0.05 mR/hr at 1 m.

Series [2] in a line: Organ uptake by gamma camera scintigraphy (organ:muscle ratio and percent injected dose). The class given is in vivo, dogs. Here is the method:
All dogs were imaged with a Gamma camera (Technicare Omega 500, Solon, Ohio, or IS2, Ottawa, Ontario). Images were obtained of the whole body in overlapping segments, in right lateral, left lateral, and sternal recumbency. Images were obtained to 200,000 counts, with a 256×256 bit matrix and 16-bit depth. A camera standard of 200 uCi in 10 mL of water was included in each image to ensure stable measurements over the scan period. Camera sensitivity was determined by placing the camera standard 30 cm from the detector and scanning for 1 minute. This calibration factor was used to convert individual organ emission counts to mCi.
Chemotherapy consisted of prednisone, vincristine, cyclophosphamide, and L-asparaginase. Two dogs had whole body computed tomography (CT) performed.
ROIs were drawn on the 2 hour images and duplicated for the opposite lateral projection and subsequent time points, and adjusted for altered patient position. […]
Organs that were clearly delineated on conjugate projections (liver, GI, bone marrow, lung) were measured using the geometric mean method, and smaller or peripherally located organs (kidney, mandibular lymph nodes, salivary gland) were measured using the effective point source method. Depth for depth correction was measured on orthogonal images. Lung activity was measured using an ROI in a posterior region and normalized to the total pixels of the lung. […] […] Camera sensitivity was measured using the camera standard. Percent injected dose and organ:muscle ratio were calculated for each imaging study at each time point. Imaging results are presented in graphical format as percent injected dose for each organ evaluated, as well as organ:muscle ratios.

Series [3] in a line: Safety monitoring in dogs (vital signs, blood pressure, complete blood counts, serum biochemistry). The class given is in vivo. The following applies: normal dogs and those with NHL.
Method: All 3 dogs were mixed breed dogs and after physical examination were clinically normal. […] Images of the whole body in orthogonal planes were acquired at 2 hours, 4 hours, and 6 hours after injection. Complete blood counts and serum biochemistry were performed before and after imaging.
On the set-up of series [4]: method as in PMID 16767086. The following applies: human plasma; cited from earlier work.
The test system of another series is activated α4β1 integrin. Also on record: method as in PMID 9479864. The following applies: cited from earlier work.
Another series has as its system canine lymphoma. Also on record: method as in PMID 16767086, PMID 19289419, PMID 22177114. The conditions noted are these: in vitro, canine cell lines and tissue samples; less than in human cell lines and xenografts; cited from earlier work. Background: Xenograft models place foreign cells or tissue in a host animal.
The subject of a further series is normal lymphocytes. Also on record: method as in PMID 16767086, PMID 22177114. The following applies: increases with activation; cited from earlier work.

Consider `Cc1ccccc1NC(=O)Nc1ccc(CC(=O)N[C@@H](CCCCNC(=O)/C=C/c2cccnc2)C(=O)N[C@@H](CCCC(=O)O)C(=O)NC2(C(=O)NCCOCCOCCNC(=O)CCC(=O)NCCOCCOCCNC(=O)CCC(=O)N[C@@H](CCCCNC(=O)c3ccc(NN)nc3)C(N)=O)CCCCC2)cc1` [^99mTc-LLP2A-HYNIC, metal not drawn], for which the “mean whole body activity” value came to 0.5 mR/h in series [1] (5 minutes post-injection) and 0.13 mR/h in series [1] (360 min). Further, in series [1] (5 minutes post-injection), the “whole body activity, range” value was 0.2–0.8 mR/h. This compound also displayed a whole body activity in series [1] (24 hours) of 0.04 mR/h. The route of elimination result in series [2] (dogs) was “mainly eliminated through the kidneys”. For the same compound, the “organ:muscle ratio” value in series [2] (kidney affected with lymphoma (dog L1), highest ratio of tumor tissues) is reported as 7.00; in series [2] (unaffected kidney in the same dog (L1)), 5.27. For the same compound, the overall safety result in series [3] is given as “safe”.

As to “N-[[4-[[[(2-ethylphenyl)amino]carbonyl]amino]phenyl]acetyl]-N ^ε-6-[(2E)-1-oxo-3-(3-pyridinyl-2-propenyl)]-L-lysyl-L-2-aminohexanedioyl-(1-amino-1-cyclohexane)carboxamide [LLP2A]”, in series [4], the resistance to proteases result is given as “resistant to proteases in human plasma”. Also, the “affinity to activated α4β1 on lymphoma cells” value in the series on activated α4β1 integrin is reported as “high affinity”. The “affinity to canine lymphoma” value with canine lymphoma is “good affinity”. In addition, the “affinity to normal lymphocytes” value in the series on normal lymphocytes is “mild affinity”.

The values are drawn from PMC3335845, “In-Vivo Biodistribution and Safety of ^99mTc-LLP2A-HYNIC in Canine Non-Hodgkin Lymphoma” (PLoS ONE, 2012).
